Numbers after ± are expanded uncertainties.
Assay: molar heat capacity at constant pressure; wn = mass fraction of the nth substance listed
Settings: Small (less than 1 g) adiabatic calorimetry

CCCCn1cc[n+](C)c1.[Br-] [1-butyl-3-methylimidazolium bromide] + O
Crystal
Settings	molar heat capacity at constant pressure [J/K/mol]
80.69 K, w2 = 0.00482	98.89 ± 0.59
80.93 K, w2 = 0.0051	98.9 ± 0.59
81.42 K, w2 = 0.0169	89.1 ± 0.55
83.2 K, w2 = 0.00482	100.65 ± 0.6
83.26 K, w2 = 0.0051	100.45 ± 0.6
83.41 K, w2 = 0.0169	90.19 ± 0.55
84.28 K, w2 = 0.0495	71.58 ± 0.46
85.41 K, w2 = 0.0169	91.5 ± 0.56
85.62 K, w2 = 0.0051	101.93 ± 0.61
85.71 K, w2 = 0.00482	102.22 ± 0.61
86.99 K, w2 = 0.0495	72.97 ± 0.46
87.41 K, w2 = 0.0169	92.8 ± 0.56
87.99 K, w2 = 0.0051	103.55 ± 0.62
88.22 K, w2 = 0.00482	103.95 ± 0.62
89.41 K, w2 = 0.0169	94.12 ± 0.57
89.64 K, w2 = 0.0495	74.29 ± 0.47
90.39 K, w2 = 0.0051	105.19 ± 0.62
90.73 K, w2 = 0.00482	105.63 ± 0.62
91.42 K, w2 = 0.0169	95.27 ± 0.58
92.3 K, w2 = 0.0495	75.61 ± 0.5
92.8 K, w2 = 0.0051	106.81 ± 0.63
93.24 K, w2 = 0.00482	107.29 ± 0.63
93.42 K, w2 = 0.0169	96.43 ± 0.59
94.99 K, w2 = 0.0495	76.9 ± 0.51
95.24 K, w2 = 0.0051	108.32 ± 0.63
95.42 K, w2 = 0.0169	97.66 ± 0.59
95.77 K, w2 = 0.00482	108.86 ± 0.64
97.43 K, w2 = 0.0169	98.68 ± 0.6
97.68 K, w2 = 0.0051	109.8 ± 0.64
97.69 K, w2 = 0.0495	78.16 ± 0.51
98.29 K, w2 = 0.00482	110.42 ± 0.64
99.44 K, w2 = 0.0169	99.85 ± 0.6
100.14 K, w2 = 0.0051	111.32 ± 0.64
100.41 K, w2 = 0.0495	79.41 ± 0.52
100.82 K, w2 = 0.00482	111.94 ± 0.65
101.45 K, w2 = 0.0169	101.05 ± 0.6
102.61 K, w2 = 0.0051	112.8 ± 0.65
103.15 K, w2 = 0.0495	80.66 ± 0.52
103.35 K, w2 = 0.00482	113.4 ± 0.65
103.46 K, w2 = 0.0169	102.17 ± 0.61
105.09 K, w2 = 0.0051	114.19 ± 0.66
105.47 K, w2 = 0.0169	103.12 ± 0.61
105.88 K, w2 = 0.00482	114.89 ± 0.66
105.9 K, w2 = 0.0495	81.82 ± 0.53
107.49 K, w2 = 0.0169	104.29 ± 0.62
107.59 K, w2 = 0.0051	115.72 ± 0.66
108.42 K, w2 = 0.00482	116.33 ± 0.67
108.67 K, w2 = 0.0495	83.08 ± 0.53
109.51 K, w2 = 0.0169	105.26 ± 0.62
110.1 K, w2 = 0.0051	117.14 ± 0.67
110.97 K, w2 = 0.00482	117.75 ± 0.67
111.45 K, w2 = 0.0495	84.27 ± 0.54
111.54 K, w2 = 0.0169	106.2 ± 0.62
112.61 K, w2 = 0.0051	118.54 ± 0.67
113.51 K, w2 = 0.00482	119.17 ± 0.68
113.57 K, w2 = 0.0169	107.35 ± 0.63
114.24 K, w2 = 0.0495	85.5 ± 0.54
115.14 K, w2 = 0.0051	119.96 ± 0.68
115.6 K, w2 = 0.0169	108.36 ± 0.63
116.06 K, w2 = 0.00482	120.61 ± 0.68
117.04 K, w2 = 0.0495	86.65 ± 0.55
117.63 K, w2 = 0.0169	109.39 ± 0.64
117.68 K, w2 = 0.0051	121.3 ± 0.69
118.63 K, w2 = 0.00482	121.93 ± 0.69
119.66 K, w2 = 0.0169	110.42 ± 0.64
119.84 K, w2 = 0.0495	87.83 ± 0.55
120.23 K, w2 = 0.0051	122.75 ± 0.69
121.18 K, w2 = 0.00482	123.35 ± 0.69
121.69 K, w2 = 0.0169	111.46 ± 0.65
122.66 K, w2 = 0.0495	89.01 ± 0.56
122.78 K, w2 = 0.0051	124.09 ± 0.7
123.73 K, w2 = 0.0169	112.39 ± 0.65
123.74 K, w2 = 0.00482	124.71 ± 0.7
125.34 K, w2 = 0.0051	125.46 ± 0.7
125.48 K, w2 = 0.0495	90.15 ± 0.56
125.77 K, w2 = 0.0169	113.34 ± 0.65
126.3 K, w2 = 0.00482	126.04 ± 0.7
127.81 K, w2 = 0.0169	114.42 ± 0.66
127.91 K, w2 = 0.0051	126.77 ± 0.71
128.32 K, w2 = 0.0495	91.34 ± 0.57
128.86 K, w2 = 0.00482	127.4 ± 0.71
129.85 K, w2 = 0.0169	115.33 ± 0.66
130.48 K, w2 = 0.0051	128.21 ± 0.71
131.16 K, w2 = 0.0495	92.52 ± 0.57
131.42 K, w2 = 0.00482	128.75 ± 0.72
131.9 K, w2 = 0.0169	116.36 ± 0.67
133.06 K, w2 = 0.0051	129.58 ± 0.72
133.95 K, w2 = 0.0169	117.4 ± 0.67
134 K, w2 = 0.00482	130.13 ± 0.72
134 K, w2 = 0.0495	93.65 ± 0.57
135.64 K, w2 = 0.0051	131 ± 0.72
136 K, w2 = 0.0169	118.35 ± 0.67
136.57 K, w2 = 0.00482	131.47 ± 0.73
136.85 K, w2 = 0.0495	94.81 ± 0.58
138.05 K, w2 = 0.0169	119.43 ± 0.68
139.14 K, w2 = 0.00482	132.79 ± 0.73
139.19 K, w2 = 0.0051	132.51 ± 0.73
139.7 K, w2 = 0.0495	95.99 ± 0.58
140.1 K, w2 = 0.0169	120.24 ± 0.68
141.87 K, w2 = 0.0051	133.88 ± 0.74
142.16 K, w2 = 0.0169	121.29 ± 0.69
142.55 K, w2 = 0.0495	97.17 ± 0.59
143.39 K, w2 = 0.00482	135 ± 0.74
144.23 K, w2 = 0.0169	122.36 ± 0.69
144.46 K, w2 = 0.0051	135.42 ± 0.74
145.41 K, w2 = 0.0495	98.38 ± 0.59
145.73 K, w2 = 0.00482	136.26 ± 0.74
146.29 K, w2 = 0.0169	123.43 ± 0.69
147.05 K, w2 = 0.0051	136.72 ± 0.75
148.27 K, w2 = 0.0495	99.58 ± 0.6
148.31 K, w2 = 0.00482	137.61 ± 0.75
148.35 K, w2 = 0.0169	124.38 ± 0.7
149.65 K, w2 = 0.0051	138.06 ± 0.75
150.42 K, w2 = 0.0169	125.3 ± 0.7
150.89 K, w2 = 0.00482	138.87 ± 0.75
151.13 K, w2 = 0.0495	100.83 ± 0.6
152.25 K, w2 = 0.0051	139.46 ± 0.76
152.48 K, w2 = 0.0169	126.38 ± 0.71

101.3 kPa, Glass, w2 = 0.00482
Settings	molar heat capacity at constant pressure [J/K/mol]
82.79 K	103.56 ± 0.62
85.01 K	105.32 ± 0.63
87.51 K	107.36 ± 0.64
90.01 K	109.3 ± 0.64
92.52 K	111.32 ± 0.64
95.02 K	113.23 ± 0.65
99.79 K	116.7 ± 0.67
102.06 K	118.31 ± 0.67
104.58 K	120.07 ± 0.68
107.1 K	121.78 ± 0.69
109.63 K	123.51 ± 0.69
112.16 K	125.21 ± 0.7
114.69 K	126.86 ± 0.71
117.23 K	128.48 ± 0.71
119.76 K	130.09 ± 0.72
122.3 K	131.74 ± 0.73
124.85 K	133.4 ± 0.73
127.39 K	135.01 ± 0.74
129.94 K	136.58 ± 0.75
132.49 K	138.2 ± 0.75
135.04 K	139.78 ± 0.76
137.59 K	141.4 ± 0.77
140.15 K	142.95 ± 0.77
142.71 K	144.57 ± 0.78
145.27 K	146.31 ± 0.79
147.83 K	147.89 ± 0.79
150.39 K	149.45 ± 0.8

Source: the NIST ThermoML archive (doi:10.1016/j.jct.2006.05.008)
